Results from US9376725B1, “Methods of screening for compounds for treating muscular dystrophy using human ALPHA7 integrin mRNA translation regulation” (PTC Therapeutics, Inc., priority 2007, dated 2016).

How the values were obtained:
mIGF1 mRNA = assay: fLuc reporter gene assay, mIGF1 5′-UTR and 3′-UTR stable cell line; assay type: cell-based, human; conditions: 7.5 μM test concentration, 24 hours, vs 0.5% DMSO, luciferase luminescence, stable 293H or RD cells
Source text: (§1) As shown in the following examples, compounds that modulate the expression of proteins (e.g., mIGF1, ITGA7, or UTRN) have been identified or validated and have the potential to treat MD, or a form thereof. Stable muscle (RD) or kidney (293H) cell lines expressing the firefly luciferase (fLuc) reporter gene flanked by the 5′-UTR and 3′-UTR of mIGF1, ITGA7, or UTRN mRNA were constructed and used to identify or validate compounds able to specifically increase expression of a reporter gene via nucleic acid constructs comprising at least the 5′-UTR and 3′-UTR of mIGF1, ITGA7 or UTRN and to increase expression of endogenous mIGF1, ITGA7 or UTRN protein.
(§2) A high-level expression vector, pcDNA™3.1/Hygro (Invitrogen Corp., Carlsbad, Calif.) was used for preparing the constructs comprising the luciferase gene flanked by any of the 5′-UTR and 3′-UTR, the 5′-UTR or the 3′-UTR of mIGF1, ITGA7, and UTRN mRNA. In a pcDNA™3.1/Hygro vector, the UTRs and restriction sites normally associated with cloning and/or expressing a gene of interest or reporter gene were removed or replaced. For each construct containing 5′ UTR sequences, the 5′ UTR sequences with a start codon were cloned into the vector using the appropriate restriction sites.
(§3) Stable 293H and RD cell lines containing the firefly luciferase (fLuc) gene flanked by mIGF1, ITGA7, or UTRN 5′-UTR and 3′-UTR were cultured in DMEM medium supplemented with 10% FBS and 200 μg/mL hygromycin in Fisher T175 flasks. The cells were passaged every 4 days at 1:10 dilution. Cultures were kept in a 37° C. and 5% CO2 incubator. The cells were scaled-up three days before performing the assay. Two confluent T175 flasks were split into twenty T175 flasks (1:10 dilution). Cells were harvested from each confluent flask by removing all of the media and adding 4 mL of warmed trypsin to dislodge the cells. After the cells were dislodged, 16 mL of selective media was added for a final volume of 20 mL. The cells were expanded by adding 2 mL of the harvested cells into ten new T175 flasks plus 25 ml, of selective media. The twenty new flasks were placed into the 37° C., 5% CO2 incubator. On the day the assay was performed, the media was removed from the flasks and 3 mL of warmed trypsin was added to dislodge the cells. After the cells were dislodged, 10 mL of nonselective media was added to the flask. This was repeated for all twenty flasks and combined into one flask. 100 μL of the above cell culture plus 100 μL of Trypan Blue stain was counted on a hemocytometer. 38 μL of cells (approximately 263 cells/4) were plated in the presence of 2 μL of a compound to be tested (at final concentration of 7.5 μM with 0.5% DMSO).
(§4) The firefly luciferase substrate used was Luc Lite Plus Packard #6016969. Luciferase activity was immediately assayed using a ViewLux Imaging system (Perkin Elmer).
(§5) The screening assay was performed by preparing plates containing test compounds and controls, including wells that contained only vehicle or a high inhibitor concentration and wells that provided an 8-point dose response curve of puromycin, a non-specific standard control inhibitor. The cells were grown overnight in the presence of compounds or controls at 37° C. in 5% CO2. Compounds were screened once for percent inhibition at a 7.5 μM test concentration. After 24 hours, the amount of luminescence was determined using a ViewLux Imaging system (Perkin Elmer).
(§6) The results for compounds shown in the following tables indicate that the compounds of the present invention enhance post-transcriptional expression of a nucleic acid construct comprising a reporter gene operably linked to any of the 5′-UTR and 3′-UTR, the 5′-UTR or the 3′-UTR of the target mIGF1 mRNA (Table 1), ITGA7 mRNA (Table 2), or UTRN mRNA (Table 3). […]

ITGA7 mRNA = assay: fLuc reporter gene assay, ITGA7 5′-UTR and 3′-UTR stable cell line; assay type: cell-based, human; conditions: 7.5 μM test concentration, 24 hours, vs 0.5% DMSO, luciferase luminescence, stable 293H or RD cells
Source text: as §1, §2, §3, §4, §5, §6

UTRN mRNA = assay: fLuc reporter gene assay, UTRN 5′-UTR and 3′-UTR stable cell line; assay type: cell-based, human; conditions: 7.5 μM test concentration, 24 hours, vs 0.5% DMSO, luciferase luminescence, stable 293H or RD cells
Source text: as §1, §2, §3, §4, §5, §6

[1] = CellTiter-Glo cytotoxicity assay, U937; assay type: cell-based; conditions: human, U937 cells (monocyte cell line); U937, relatively sensitive cell line
Source text: To evaluate cytotoxicity of the compounds in the 293H and RD cell lines, the CellTiter-Glo assay (Promega) is utilized. CellTiter-Glo determines the number of viable cells in culture based on quantification of the ATP present, which signals the presence of metabolically active cells. A reduction in cellular ATP is indicative of a cytotoxic or cytostatic effect. Doxorubicin, a known cytotoxic compound, is used to address the sensitivity of the tested cell line. For relatively sensitive cell lines, such as U937 (a human monocyte cell line), the CC50 of doxorubicin ranges from 4 to 10 nM.

[2] = CellTiter-Glo cytotoxicity assay, Huh7; assay type: cell-based; conditions: human, Huh7 cells (hepatoblastoma cell line); Huh7, intermediate level of sensitivity
dystrophin [3] = conditions: human clinical trials; cited from earlier work
dystrophin [4] = conditions: mouse model; results could not be replicated; cited from earlier work

Molecule	mIGF1, fold increase compared to negative control (mIGF1 mRNA)	ITGa7, fold increase compared to negative control (ITGA7 mRNA)	UTRN, fold increase compared to negative control (UTRN mRNA)	CC50 [1]	CC50 [2]	increase in expression of dystrophin (dystrophin [3])	increase in dystrophin levels (dystrophin [4])
Nc1ccc(Sc2cc(Cl)nc(N)n2)cc1 [Cpd 1, 4-(4-aminophenylthio)-6-chloropyrimidin-2-amine]	** (two stars indicate a greater than one-fold and up to two-fold increase in target mRNA)	** (two stars indicate a greater than one-fold and up to two-fold increase in target mRNA)	** (two stars indicate a greater than one-fold and up to two-fold increase in target mRNA)	–	–	–	–
CN(C)c1ccc(-c2nc3cc([N+](=O)[O-])ccc3[nH]2)cc1 [Cpd 2, N,N-dimethyl-4-(5-nitro-1H-benzo[d]imidazol-2-yl)aniline]	** (two stars indicate a greater than one-fold and up to two-fold increase in target mRNA)	**** (four stars indicate a greater than three-fold and up to four-fold increase in target mRNA)	*** (three stars indicate a greater than two-fold and up to three-fold increase in target mRNA)	–	–	–	–
CCCc1cc(Cl)n2c(nc3ccccc32)c1C#N [Cpd 3, 1-chloro-3-propyl-benzoimidazo[1,2-a]pyridine-4-carbonitrile]	* (one star indicates less than one-fold increase in target mRNA)	* (one star indicates less than one-fold increase in target mRNA)	** (two stars indicate a greater than one-fold and up to two-fold increase in target mRNA)	–	–	–	–
Oc1cccc(-c2nc3ccc4ccccc4c3c3c2CCC3)c1 [Cpd 4, 3-(2,3-dihydro-1H-benzo[f]cyclopenta[c]quinolin-4-yl)phenol]	*** (three stars indicate a greater than two-fold and up to three-fold increase in target mRNA)	*** (three stars indicate a greater than two-fold and up to three-fold increase in target mRNA)	** (two stars indicate a greater than one-fold and up to two-fold increase in target mRNA)	–	–	–	–
CCOc1ccc(C(=O)NC(=S)Nc2ccc(-c3nc4ccccc4s3)cc2)cc1[N+](=O)[O-] [Cpd 5, N-(4-(benzo[d]thiazol-2-yl)phenylcarbamothioyl)-4-ethoxy-3-nitrobenzamide]	** (two stars indicate a greater than one-fold and up to two-fold increase in target mRNA)	*** (three stars indicate a greater than two-fold and up to three-fold increase in target mRNA)	*** (three stars indicate a greater than two-fold and up to three-fold increase in target mRNA)	–	–	–	–
N#CC1=C(N)Oc2c(ccc3ccccc23)C1c1cccc(C(F)(F)F)c1 (stereo not shown) [Cpd 6, 2-amino-4-(3-(trifluoromethyl)phenyl)-4H-benzo[h]chromene-3-carbonitrile]	* (one star indicates less than one-fold increase in target mRNA)	* (one star indicates less than one-fold increase in target mRNA)	** (two stars indicate a greater than one-fold and up to two-fold increase in target mRNA)	–	–	–	–
CCCCOc1ccc(C(=O)NC(=S)Nc2cc(-c3nc4ccccc4s3)ccc2C)cc1 [Cpd 7, N-(5-(benzo[d]thiazol-2-yl)-2-methylphenylcarbamothioyl)-4-butoxybenzamide]	*** (three stars indicate a greater than two-fold and up to three-fold increase in target mRNA)	**** (four stars indicate a greater than three-fold and up to four-fold increase in target mRNA)	** (two stars indicate a greater than one-fold and up to two-fold increase in target mRNA)	–	–	–	–
COc1cccc2c1C(=O)c1c(O)c3c(c(O)c1C2=O)C[C@@](O)(C(=O)CO)C[C@@H]3O[C@H]1C[C@H](N)[C@H](O)[C@H](C)O1 [doxorubicin, Doxorubicin]	–	–	–	4 to 10 nM	70 to 300 nM	–	–
gentamicin	–	–	–	–	–	no increase	10-20%
